Patent US20220233743A1, “WOUND CLOSURE ENHANCEMENT METHODS AND MATERIALS VIA MANIPULATION OR AUGMENTATION OF LIPIN-1” (Board of Supervisors of Louisiana State University and …, priority 2019, published 2022)

Columns and labels:
BMDMs [1] = assay: Mitochondrial bioenergetics, Seahorse OCR after IL-4; format: cell-based, mouse
Procedure: BMDMs collected from lipin-1^mEnzyKO, lipin-1^mKO, and littermate control mice were seeded at a density of 150,000 cells per well on XF24 cell culture microplates and allowed to incubate for 4 h. Experiments were conducted in XF assay medium containing 25 mM glucose, 2 mM 1-glutamine, and 1 mM sodium pyruvate and analyzed using a Seahorse XFe 24 extracellular flux analyzer (Agilent Technologies). Where indicated, the following were injected: ATP-synthesis inhibitor oligomycin (Oligo; 1 μM), carbonyl cyanide 4-(trifluoromethoxy)phenylhydrazone (FCCP) (2 μM) to uncouple ATP synthesis, rotenone (100 nM) to block complex I, and antimycin A (1 μM) (Sigma-Aldrich) to block complex III. Oxygen consumption rate (OCR) was analyzed using Wave Desktop software (Agilent Technologies).
IL-4 stimulation polarizes macrophages toward a proresolving macrophage and elicits increased (3-oxidation and oxidative phosphorylation. In hepatocytes and skeletal muscle cells, lipin-1 promotes β-oxidation and oxidative phosphorylation. The inventors wanted to investigate if lipin-1 promoted oxidative phosphorylation in macrophages in response to IL-4. The inventors used BMDMs from lipin-1^mEnzyKO (EKO), lipin-1^mKO (KO), and littermate controls (wild type [WT]) to determine the contribution of the enzymatic activity and infer the contribution of the transcriptional coregulatory activity toward induction of oxidative phosphorylation. BMDMs from EKO, KO, and WT mice were stimulated with 40 ng/ml IL-4 for 4 h, and cellular bioenergetics were analyzed by Seahorse extracellular flux analyzer (Agilent Technologies). There were no differences in respiration between unstimulated WT and EKO macrophages (FIGS. 1 and 3). […] The inventors next tested if lipin-1 transcriptional coregulatory activity contributes to oxidative metabolism in macrophages. WT and lipin-1 KO macrophages were stimulated with IL-4 for 4 h, and cellular bioenergetics were analyzed. There was no difference in respiration between unstimulated WT and lipin-1 KO BMDMs (FIGS. 4 and 6).

BMDMs [2] = assay: Phagocytosis assay with pHrodo green zymosan particles; format: cell-based, mouse; conditions: IL-4 stimulated (20 ng/ml, 24 h) lipin-1mKO BMDMs vs wild type BMDMs
Procedure: Bone marrow-derived macrophages (5×10^5 cells) were cultured on sterile coverslips in culture wells and treated with 20 ng/ml IL-4 for 24 h. Culture medium was then replaced with DMEM, containing pHrodo™ green Zymosan A BioParticles® (Thermo Fisher Scientific, P35365) such that each well receives 0.1 mg zymosan particles. BMDMs were allowed to phagocytose for 1 h under dark incubation and then the assay was stopped by cold PBS wash. Cells seeded on coverslips were then fixed using 4% formaldehyde. Cells on cover slips were washed three times and then stained with DAPI slowfade (Invitrogen, S36938). Immunofluorescent images were taken using Olympus BX51 and evaluated using Image J (1.50a) analysis software. Phagocytic efficiency for each image was calculated by dividing the total number of fluorescent beads by the total number of nuclei in the fluorescent image, thus giving average number of beads per cell. Experiment was performed 3 times with 4 random images per group (n=12).
Macrophages with a wound healing phenotype can have increased phagocytic capabilities. The inventors investigated the ability of BMDMs to phagocytize zymosan beads. The inventors mock treated or IL-4 treated BMDMs from lipin-1^mKO or litter mate controls for 24 h. […] The inventors then imaged using fluorescent microscopy and quantified average number of particles per cell.

With “IL-4: cytokine IL-4 (R&D Biosystems, 404-ML-050) used to stimulate macrophages; optional component of the claimed composition” the “OCR in response to IL-4 stimulation” value (BMDMs [1]; EKO (lipin-1mEnzyKO) BMDMs, 40 ng/ml IL-4 for 4 h) was “equivalent increase in OCR”, the “OCR in response to IL-4 stimulation” value (BMDMs [1]; WT BMDMs, 40 ng/ml IL-4 for 4 h) was “increased OCR” and the “OCR in response to IL-4 stimulation” value (BMDMs [1]; lipin-1 KO BMDMs, IL-4 for 4 h) was “failed to increase OCR”. The “zymosan particles per cell” value (BMDMs [2]) was “fewer particles per cell”.
